From PubChem BioAssay (NCI)
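Tested at 5 concentrations; 48 h exposure; 96-well plates; endpoints linearly interpolated, else capped at highest concentration. The concentration for full growth arrest is given as TGI.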

What was measured:
Experiment in all cases: growth of human tumour cells (NCI), 48 h
DMS 114 small cell lung = tested on: DMS 114 small cell lung
HOP-18 NSCLC = tested on: HOP-18 NSCLC
KM20L2 colon = tested on: KM20L2 colon
LXFL 529 NSCLC = tested on: LXFL 529 NSCLC
M19-MEL melanoma = tested on: M19-MEL melanoma
RXF-631 renal = tested on: RXF-631 renal
SNB-78 CNS = tested on: SNB-78 CNS
XF 498 CNS = tested on: XF 498 CNS

| SMILES | TGI (DMS 114 small cell lung) | TGI (HOP-18 NSCLC) | TGI (KM20L2 colon) | TGI (LXFL 529 NSCLC) | TGI (M19-MEL melanoma) | TGI (RXF-631 renal) | TGI (SNB-78 CNS) | TGI (XF 498 CNS) |
| --- | --- | --- | --- | --- | --- | --- | --- | --- |
| CCOC(=O)c1ncoc1[C@H]1COC(C)(C)O1 | > 100 µM | > 100 µM | > 100 µM | > 100 µM | > 100 µM | > 100 µM | > 100 µM | – |
| Cc1c(C(=O)CSc2nc3ccc([N+](=O)[O-])cc3[nH]2)c(=O)n(-c2ccccc2)n1C | > 100 µM | – | – | > 100 µM | > 100 µM | – | – | > 100 µM |
| CCC1(OC(=O)CN2CCN(CCO)CC2)C(=O)OCc2c1cc1n(c2=O)Cc2cc3ccccc3nc2-1 (centres undefined) | 16.8 µM | 25.8 µM | 7.46 µM | 21.4 µM | 6.99 µM | – | > 100 µM | 14.2 µM |
| O=C1CC2CC=C[C@H]3c4cc5c(cc4C(=O)N1C23)OCO5 (some centres undefined) | > 50 µM | – | > 50 µM | > 50 µM | > 50 µM | – | > 50 µM | – |
| O=C1C=C(N2CCCC2)C=C(N2CCCC2)C1 | > 100 µM | > 100 µM | > 100 µM | > 100 µM | 91.2 µM | – | > 100 µM | > 100 µM |
| CCOc1ccc(N2C(=O)C3c4[nH]c5ccccc5c4C4CCC(C(C)(C)C)CC4C3C2=O)cc1 (centres undefined) | > 100 µM | > 100 µM | > 100 µM | > 100 µM | – | – | > 100 µM | > 100 µM |
| CCN(CC)CCNC(=O)c1ccc([N+](=O)[O-])cc1OC | > 100 µM | – | > 100 µM | > 100 µM | > 100 µM | – | > 100 µM | – |
| O=C(O)C(CS)NCc1c2ccccc2[n+]([O-])c2ccccc12 (centres undefined) | 68.6 µM | > 100 µM | > 100 µM | 84.3 µM | > 100 µM | > 100 µM | > 100 µM | – |
| O=C1Nc2cccc3ncn(c23)C2=C1CCCC2 | > 100 µM | 83.8 µM | > 100 µM | > 100 µM | > 100 µM | – | > 100 µM | – |
